# pKi: −log10 of the molar value. Where a SMILES comes first, the peptide text is derived from it. [ ]: non-standard residue; d: D form. The star is where a group is joined. Pro(3R,4S-CMe2) = CC1(C)[C@@H]2[C@@H](C(=O)O)NC[C@@H]21; Abu(4,4-F2) = N[C@@H](CC(F)F)C(=O)O; Phg = N[C@H](C(=O)O)c1ccccc1; Tle = CC(C)(C)[C@H](N)C(=O)O; Boc = CC(C)(C)OC(=O)*
# Biological target: T1, HCV NS3/NS4a serine protease (Hepatitis C virus genotype 1b, UniProt P26663)
# T1 construct: amino terminus of the NS3 protease domain (amino acids 3-181) with a tetrapeptide linker; made in house; host or cells: E. coli
# Assay: Spectrophotometric assay for HCV protease inhibitory activity (chromogenic ester substrates)
# Assay type: biochemical, hepatitis C virus (strain 1b)
# Settings: single chain NS4A21-32-GSGS-NS3 3-181 protease, 30° C., pH 6.5
# Procedure: Spectrophotometric Assay: Spectrophotometric assays for the HCV serine protease were performed on the inventive compounds by following the procedure described by R. Zhang et al., Analytical Biochemistry, 270 (1999) 268-275, the disclosure of which is incorporated herein by reference. The assay based on the proteolysis of chromogenic ester substrates is suitable for the continuous monitoring of HCV NS3 protease activity.
# HCV NS3 protease (strain 1b) and its NS4A cofactor were constructed as a recombinant single chain protein. The NS4A cofactor domain (amino acid residues 21-32) was fused in frame to the amino terminus of the NS3 protease domain (amino acids 3-181) with a tetrapeptide linker. This NS4A 21-32-GSGS-NS33-181 construct was then expressed in E. coli and purified to >90% homogeneity. Kinetic parameters were determined and found to be the same as that of the full length NS31-631/NS4A1-54 protein complex produced in the baculovirus system (D. L. Sali et al, Biochemistry, 37 (1998) 3392-340). The details of the cloning, expression, purification and kinetic analysis of the of the single chain recombinant protease have been previously described (S. S. Taremi, et al. Protein Science. 7 (1998) 2143-2149.
# Protein concentrations were determined by the Biorad dye method using recombinant HCV protease standards previously quantified by amino acid analysis. Prior to assay initiation, the enzyme storage buffer (50 mM sodium phosphate pH 8.0, 300 mM NaCl, 10% glycerol, 0.05% lauryl maltoside and 10 mM DTT) was exchanged for the assay buffer (25 mM MOPS pH 6.5, 300 mM NaCl, 10% glycerol, 0.05% lauryl maltoside, 5 μM EDTA and 5 μM DTT) utilizing a Biorad Bio-Spin P-6 prepacked column.
# Protease Assay: HCV protease assays were performed at 30° C. using a 200 μl reaction mix in a 96-well microtiter plate. Assay buffer conditions (25 mM MOPS pH 6.5, 300 mM NaCl, 10% glycerol, 0.05% lauryl maltoside, 5 μM EDTA and 5 μM DTT) were optimized for the NS3/NS4A heterodimer (D. L. Sali et al, ibid.)). Typically, 100 μl mixtures of buffer, substrate and inhibitor were placed in wells and allowed to preincubate at 30° C. for approximately 3 minutes. One hundred μls of pre-warmed protease (30° C.) in assay buffer, was then used to initiate the reaction to produce a final concentration of 1.3 nM HCV). The Substrate cleavage by the protease was monitored over 60 minutes by measuring the release of the phenylazophenol (PAP) product at an absorbance of 370 nm with a continuous read every 30 seconds using a SpectraMax Plus microtiter plate reader (Molecular Devices, Sunnyvale, Calif.). Background hydrolysis of the substrate was subtracted. Inhibitors were tested over a range of concentrations (final DMSO concentration 4%)
# Evaluation of Inhibitors The inhibition constants (Ki) for the competitive inhibitors were determined experimentally at fixed concentrations of enzyme and substrate by plotting vo/vi vs. inhibitor concentration ([I]o) according to the rearranged Michaelis-Menten equation for competitive inhibition kinetics: vo/vi=1+[I]o/(Ki(1+[S]o/Km)), where vo is the uninhibited initial velocity, vi is the initial velocity in the presence of inhibitor at any given inhibitor concentration ([I]o) and [S]o is the substrate concentration used. The resulting data were fitted using linear regression and the resulting slope, 1/(Ki(1+[S]o/Km), was used to calculate the Ki value.
# T1 sequence (P26663 1013-1207, looked up, natural form): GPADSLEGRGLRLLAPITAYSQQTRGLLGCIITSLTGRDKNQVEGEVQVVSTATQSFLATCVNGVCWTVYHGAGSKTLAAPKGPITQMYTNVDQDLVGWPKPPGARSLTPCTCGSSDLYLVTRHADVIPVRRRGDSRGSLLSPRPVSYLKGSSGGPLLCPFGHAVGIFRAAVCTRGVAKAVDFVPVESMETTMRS
Compound,"pKi (Ki, Table 3, rating)","pKi (Ki Rating, Table 2)",other results
CN(C[C@@H](NC(=O)N[C@H](C(=O)N1C[C@H]2[C@@H]([C@H]1C(=O)N[C@@H](CC(F)F)C(=O)NCCc1ccc(C(C)(C)C)cc1)C2(C)C)C(C)(C)C)C(C)(C)C)S(C)(=O)=O [Example 276],> 7.00,,
CC(C)CNC(=O)[C@H](CC(F)F)NC(=O)[C@@H]1[C@@H]2[C@H](CN1C(=O)[C@@H](NC(=O)N[C@H](CN(C)S(C)(=O)=O)C(C)(C)C)C(C)(C)C)C2(C)C [Example 206],< 6.30,,
CC(C)(C)OC(=O)N[C@H](C(=O)N1C[C@H]2[C@@H]([C@H]1C(=O)NC(CC(F)F)C(=O)NCCc1ccccc1)C2(C)C)C(C)(C)C (some centres unmarked) [Example 151],,< 6.30,
COc1ccc(Br)cc1CCNC(=O)[C@H](CC(F)F)NC(=O)[C@@H]1[C@@H]2[C@H](CN1C(=O)[C@@H](NC(=O)N[C@H](CN(C)S(C)(=O)=O)C(C)(C)C)C(C)(C)C)C2(C)C [Example 300],> 7.00,,
CC(C)[C@@H](CO)NC(=O)[C@H](CC(F)F)NC(=O)[C@@H]1[C@@H]2[C@H](CN1C(=O)[C@@H](NC(=O)N[C@H](CN(C)S(C)(=O)=O)C(C)(C)C)C(C)(C)C)C2(C)C [Example 232],< 6.30,,
CC(C)[C@H](NC(=O)N[C@H](C(=O)N1C[C@H]2[C@@H]([C@H]1C(=O)N[C@@H](CC(F)F)C(=O)NCCc1ccc(C(N)=O)cc1)C2(C)C)C(C)(C)C)C(=O)O [Example 124],,6.30 to 7.00,
COc1cccc(CCNC(=O)[C@H](CC(F)F)NC(=O)[C@@H]2[C@@H]3[C@H](CN2C(=O)[C@@H](NC(=O)N[C@H](CN(C)S(C)(=O)=O)C(C)(C)C)C(C)(C)C)C3(C)C)c1OC [Example 277],6.30 to 7.00,,
COC(=O)c1ccc(CCNC(=O)[C@H](CC(F)F)NC(=O)[C@@H]2[C@@H]3[C@H](CN2C(=O)[C@@H](NC(=O)OC(C)(C)C)C(C)(C)C)C3(C)C)cc1 [Example 148],,< 6.30,
CN(C[C@@H](NC(=O)N[C@H](C(=O)N1C[C@H]2[C@@H]([C@H]1C(=O)N[C@@H](CC(F)F)C(=O)NCCc1c[nH]c3ccccc13)C2(C)C)C(C)(C)C)C(C)(C)C)S(C)(=O)=O [Example 252],> 7.00,,
CCOc1ccc(CCNC(=O)[C@H](CC(F)F)NC(=O)[C@@H]2[C@@H]3[C@H](CN2C(=O)[C@@H](NC(=O)N[C@H](CN(C)S(C)(=O)=O)C(C)(C)C)C(C)(C)C)C3(C)C)cc1OC [Example 287],> 7.00,,
CCOc1cc(CCNC(=O)[C@H](CC(F)F)NC(=O)[C@@H]2[C@@H]3[C@H](CN2C(=O)[C@@H](NC(=O)N[C@H](CN(C)S(C)(=O)=O)C(C)(C)C)C(C)(C)C)C3(C)C)ccc1OC [Example 286],> 7.00,,
CC1(NC(=O)N[C@H](C(=O)N2C[C@H]3[C@@H]([C@H]2C(=O)NC(CC(F)F)C(=O)NCCc2ccccc2)C3(C)C)C(C)(C)C)CCCCC1 (some centres unmarked) [Example 145],,< 6.30,
"CN(C)C(=O)[C@@H](NC(=O)CNC(=O)[C@H](CC(F)F)NC(=O)[C@@H]1[C@@H]2[C@H](CN1C(=O)[C@@H](NC(=O)OC(C)(C)C)C(C)(C)C)C2(C)C)c1ccccc1 [Example 171] (Boc-[Tle][Pro(3R,4S-CMe2)][Abu(4,4-F2)]G[Phg]-NMe2)",,< 6.30,
CC(C)[C@H](NC(=O)N[C@H](C(=O)N1C[C@H]2[C@@H]([C@H]1C(=O)N[C@@H](CC(F)F)C(N)=O)C2(C)C)C(C)(C)C)C(=O)O [Example 157],,< 6.30,
Cc1ccc(CCNC(=O)[C@H](CC(F)F)NC(=O)[C@@H]2[C@@H]3[C@H](CN2C(=O)[C@@H](NC(=O)N[C@H](CN(C)S(C)(=O)=O)C(C)(C)C)C(C)(C)C)C3(C)C)cc1C [Example 267],> 7.00,,
CC(Cc1ccc(Cl)cc1)NC(=O)[C@H](CC(F)F)NC(=O)[C@@H]1[C@@H]2[C@H](CN1C(=O)[C@@H](NC(=O)N[C@H](CN(C)S(C)(=O)=O)C(C)(C)C)C(C)(C)C)C2(C)C (some centres unmarked) [Example 296],6.30 to 7.00,,

Compound,"pKi (Ki, Table 3, rating)","pKi (Ki Rating, Table 2)",other results
COC(=O)c1ccc(CCNC(=O)[C@H](CC(F)F)NC(=O)[C@@H]2[C@@H]3[C@H](CN2C(=O)[C@@H](NC(=O)N[C@H](C(=O)c2ccccc2)C(C)C)C(C)(C)C)C3(C)C)cc1 [Example 134],,6.30 to 7.00,
CC1(C)C[C@H]2[C@H](CN(C(=O)[C@@H](NC(=O)OCc3ccccc3)C3CCCCC3)[C@@H]2C(=O)N[C@@H](CC(F)F)C(=O)NCCc2ccccc2)O1 [Example 158],,< 6.30,
CN(C[C@@H](NC(=O)N[C@H](C(=O)N1C[C@H]2[C@@H]([C@H]1C(=O)N[C@@H](CC(F)F)C(=O)NCCc1ccccn1)C2(C)C)C(C)(C)C)C(C)(C)C)S(C)(=O)=O [Example 235],6.30 to 7.00,,
CN(C[C@@H](NC(=O)N[C@H](C(=O)N1C[C@H]2[C@@H]([C@H]1C(=O)N[C@@H](CC(F)F)C(=O)N1CCc3ccccc3C1)C2(C)C)C(C)(C)C)C(C)(C)C)S(C)(=O)=O [Example 302],< 6.30,,
CC(C)(C)[C@H](NC(=O)NC1(CS(C)(=O)=O)CCCCC1)C(=O)N1C[C@H]2[C@@H](C1C(=O)N[C@@H](CC(F)F)C(=O)NCCc1ccc(C(=O)O)cc1)C2(C)C (some centres unmarked) [Example 107],,,"pKi (Ki, Table 1): 7.54"
CN(C[C@@H](NC(=O)N[C@H](C(=O)N1C[C@H]2[C@@H]([C@H]1C(=O)N[C@@H](CC(F)F)C(=O)NCCc1c(Cl)cccc1Cl)C2(C)C)C(C)(C)C)C(C)(C)C)S(C)(=O)=O [Example 284],> 7.00,,
CC(C)[C@H](NC(=O)N[C@H](C(=O)N1C[C@@H]2OC(C)(C)C[C@@H]2[C@H]1C(=O)N[C@@H](CC(F)F)C(=O)NCCc1ccccc1)C1CCCCC1)C(=O)OC(C)(C)C [Example 152],,< 6.30,
CC(C)[C@H](NC(=O)N[C@H](C(=O)N1C[C@H]2[C@@H]([C@H]1C(=O)N[C@@H](CC(F)F)C(N)=O)C2(C)C)C(C)(C)C)C(=O)OC(C)(C)C [Example 164],,< 6.30,
CN(C[C@@H](NC(=O)N[C@H](C(=O)N1C[C@H]2[C@@H]([C@H]1C(=O)N[C@@H](CC(F)F)C(=O)N[C@H]1C[C@H]1c1ccccc1)C2(C)C)C(C)(C)C)C(C)(C)C)S(C)(=O)=O [Example 307],> 7.00,,
CN(C[C@@H](NC(=O)N[C@H](C(=O)N1C[C@H]2[C@@H]([C@H]1C(=O)N[C@@H](CC(F)F)C(=O)NCCc1cccc(Cl)c1)C2(C)C)C(C)(C)C)C(C)(C)C)S(C)(=O)=O [Example 202],> 7.00,,
CC(C)OCCCNC(=O)[C@H](CC(F)F)NC(=O)[C@@H]1[C@@H]2[C@H](CN1C(=O)[C@@H](NC(=O)N[C@H](CN(C)S(C)(=O)=O)C(C)(C)C)C(C)(C)C)C2(C)C [Example 214],< 6.30,,
CN(C[C@@H](NC(=O)N[C@H](C(=O)N1C[C@H]2[C@@H]([C@H]1C(=O)N[C@@H](CC(F)F)C(=O)NCCc1ccc(O)cc1)C2(C)C)C(C)(C)C)C(C)(C)C)S(C)(=O)=O [Example 245],> 7.00,,
CN(C[C@@H](NC(=O)N[C@H](C(=O)N1C[C@H]2[C@@H]([C@H]1C(=O)N[C@@H](CC(F)F)C(=O)N[C@@H]1C[C@@H]1c1ccccc1)C2(C)C)C(C)(C)C)C(C)(C)C)S(C)(=O)=O [Example 308],> 7.00,,
COc1ccc(CCNC(=O)[C@H](CC(F)F)NC(=O)[C@@H]2[C@@H]3[C@H](CN2C(=O)[C@@H](NC(=O)N[C@H](CN(C)S(C)(=O)=O)C(C)(C)C)C(C)(C)C)C3(C)C)cc1Br [Example 292],> 7.00,,
COC(=O)c1ccc(CCNC(=O)[C@H](CC(F)F)NC(=O)[C@@H]2[C@@H]3[C@H](CN2C(=O)[C@@H](NC(=O)N[C@H](CNS(=O)(=O)c2ccccc2)C(C)C)C(C)(C)C)C3(C)C)cc1 [Example 130],,6.30 to 7.00,
CC(C)[C@@H](CN(C)S(=O)(=O)c1ccccc1)NC(=O)N[C@H](C(=O)N1C[C@H]2[C@@H]([C@H]1C(=O)N[C@@H](CC(F)F)C(=O)NCCc1ccc(C(=O)O)cc1)C2(C)C)C(C)(C)C [Example 112],,,"pKi (Ki, Table 1): 7.30"

# Reference: patent publication US7449447B2, “Peptidomimetic NS3-serine protease inhibitors of hepatitis C virus” (priority 2003, dated 2008)
